Each structure is given as a SMILES string.

The nature of series [1]: Bulk density determination of felbamate (10 ml graduated cylinder, 50 taps). Format: physicochemical. The source says:
One important characteristic is tapped bulk density, or simply tapped (or tap) density, that is the maximum packing density of a powder (or blend of powders) achieved under the influence of well defined, externally applied forces (see, http://en.wikipedia.org/wiki/Bulk_density). The minimum packed volume thus achieved depends on a number of factors including particle size distribution, true density, particle shape and cohesiveness due to surface forces including moisture. Therefore, the tap density of a material can be used to predict both its flow properties and its compressibility. These two parameters are important in the overall tabletting process, which requires that loose powders be compacted into a durable solid form with the correct mechanical strength, porosity and dissolution characteristics. These parameters are also important in the formation of oral suspensions, which ideally contain particles of high bulk density, enabling even dispersion of the particles throughout the suspension after shaking and before consumption.
Felbamate (1.211 gm) purified by the above process (Example 3) was poured into a 10 ml graduated cylinder. The untapped volume of felbamate was 3.5 ml, resulting in an untapped bulk density of 0.35 gm/ml which was greater than the untapped bulk density of felbamate prepared by other methods (see below, Examples 9 and 10). The graduated cylinder was tapped until the felbamate (50 taps) no longer settled. The volume of felbamate after tapping was 2.2 ml, resulting in a tapped bulk density of 0.55 gm/ml.
Felbamate (0.972 gm) synthesized by the process disclosed in WO 94/06737 was poured into a 10 ml graduated cylinder. The untapped volume of felbamate was 5.1 ml, resulting in an untapped bulk density of 0.19 gm/ml. The graduated cylinder was tapped until the felbamate (50 taps) no longer settled. The volume of felbamate after tapping was 3.2 ml, resulting in a tapped bulk density of 0.30 gm/ml.
Felbamate (2 gm) synthesized by the process disclosed in U.S. Pat. No. 4,868,327 was purified by adding to 20 ml of methanol, heating the methanol to reflux to obtain a clear solution, cooling the solution to room temperature over three hours with stirring, and isolating the felbamate by filtration and drying under vacuum at 50° C. Felbamate (0.927 gm) purified by this process was poured into a 10 ml graduated cylinder. The untapped volume of felbamate was 6.5 ml, resulting in an untapped bulk density of 0.14 gm/ml. The graduated cylinder was tapped until the felbamate (50 taps) no longer settled. The volume of felbamate after tapping was 2.9 ml, resulting in a tapped bulk density of 0.32 gm/ml.

Test in series [2]: as above
Format: physicochemical. The source holds these as a separate data set.

Take `NC(=O)OCC(COC(N)=O)c1ccccc1` [Felbamate, 2-phenyl-1,3-propanediol dicarbamate]: the untapped bulk density is 0.14 g/mL in series [1] (Table I, U.S. Pat. No. 4,868,327); 0.19 g/mL in series [1] (Table I, WO 94/06737); 0.35 g/mL in series [1] (Table I, purification process as disclosed in Example 3); 0.14 gm/ml in series [1] (felbamate by process of U.S. Pat. No. 4,868,327, recrystallised from methanol (Example 10)); 0.35 gm/ml in series [1] (felbamate purified by process of Example 3, 1.211 gm in 10 ml cylinder (Example 8)); 0.19 gm/ml in series [1] (felbamate synthesized by process of WO 94/06737 (Example 9)). For the same compound, the tapped bulk density in series [1] (Table I, U.S. Pat. No. 4,868,327, 50 taps) came to 0.32 g/mL; in series [1] (Table I, WO 94/06737, 50 taps), 0.3 g/mL; in series [1] (Table I, purification process as disclosed in Example 3, 50 taps), 0.55 g/mL; in series [1] (felbamate by process of U.S. Pat. No. 4,868,327, recrystallised from methanol, 50 taps (Example 10)), 0.32 gm/ml; in series [1] (felbamate purified by process of Example 3, 50 taps (Example 8)) it was 0.55 gm/ml; in series [1] (felbamate purified from methanol-water (Example 3)), 0.5 gm/ml. Besides, the tapped bulk density is recorded as 0.4 gm/ml in series [1] (felbamate purified from tetrahydrofuran-water (Example 5)); 0.30 gm/ml in series [1] (felbamate synthesized by process of WO 94/06737, 50 taps (Example 9)); 0.55 gm/ml in series [2] (felbamate purified from acetonitrile-water (Example 4)); 0.54 gm/ml in series [2] (felbamate purified from isopropanol-water (Example 6)); 0.35 gm/ml in series [2] (felbamate purified from water (Example 7)).

Source of the values: patent publication US20110091728A1, “Felbamate With Improved Bulk Density” (priority 2007, published 2011).
